Patent US11090351B2, “Whitening agent” (KAO CORPORATION, priority 2016, dated 2021)
Like-named read-outs stand apart in the source and are kept apart here.

Columns and labels:
B16 melanoma cells [1] = experiment: Inhibition of melanogenesis in skin melanocytes (relative amount of extracellular melanin); type: cell-based; conditions: Mus musculus
Method: (§1) B16 melanoma cells (DS pharma Biomedical) were used as skin melanocytes. The B16 melanoma cells were cultured in a CO2 incubator (37° C., 5% CO2) in 10 cm dishes containing the DMEM medium supplemented with 10% FBS. A cell suspension at 5.0×10^4 cells/mL was prepared from the cultured cells. 998 μL aliquots of the cell suspension were dispensed into 24 well plates and cultured in a CO2 incubator (37° C., 5% CO2) overnight. Subsequently, 2 μL of the DMSO solution of the methanol extract from Syzygium polyanthum prepared in Production Example 3 was added to each well (the final concentrations of the extract: 25 and 50 μg/mL) and the mixtures were further cultured for 72 hours. Arbutin (730 μM) was used instead of the extract as a positive control. DMSO was used as control.
The supernatants of the cultures prepared in (1) were collected, 200 μL each was transferred into a 96 well plate, and then the absorbance was measured at 510 nm. The relative amount of extracellular melanin was calculated by determining the relative value to the control.
(§2) The assay for tyrosinase activity was conducted in a procedure similar to that in Example 1 (3) using Compounds 1-3 as samples. In the tyrosinase activity assay, the final concentrations of each compound were adjusted to 100, 50, 25, and 12.5 mM and IC50 was calculated. Moreover, tests for melanogenesis inhibiting activity and for cytotoxicity were conducted in procedures similar to those in Example 2. The relative amount of extracellular melanin and the relative cell survival rate of skin melanocytes to which Compounds 1-3 were added were measured. The result of the tyrosinase activity assay is illustrated in Table 5 and the results of the measurements of the relative amount of extracellular melanin and the relative cell survival rate are illustrated in Table 6.

B16 melanoma cells [2] = experiment: Cytotoxicity test (MTT assay), relative cell survival rate; type: cell-based
Method: as §1
The MTT assay solution was prepared by dissolving 50 mg of Thiazolyl Blue Tetrazolium Bromide (SIGMA) in 10 mL of PBS (−). 50 μL of the MTT assay solution was added to each culture prepared in (1) and reacted for 4 hours. Then, 1 mL of isopropanol for MTT was added to each culture and the plate was covered with aluminum foil and allowed for reaction at room temperature for 2 hours for the reaction. After the reaction, the total amount was collected and centrifuged (1.45×10^3 rpm, 1 min), then 150 μL each of the supernatants was transferred into a 96 well plate, and the absorbance was measured at 590 nm. The relative cell survival rate (cytotoxicity) was calculated by determining the relative value to the control.
as §2

mushroom tyrosinase = experiment: Tyrosinase activity assay (methanol extract, fractions, Compounds 1-3); type: biochemical; conditions: Table 5
Method: 1 mg of methanol extract from Syzygium polyanthum prepared in Production Example 3 was dissolved in 50 μL of DMSO and 550 μL of a buffer (50 mM solution of disodium hydrogen phosphate, pH 6.5). This extract solution was transferred in a 96 well plate so that the final concentrations of extract became 500, 250, 125, 62.5, 31.25, 15.625, 7.8125 and 0 μg/mL and diluted to 60 μL with the buffer. 30 μL of the tyrosinase solution (a buffered solution of 1 mg/16 mL mushroom tyrosinase (SIGMA), pH 6.5) and 110 μL of the substrate solution (2 mM L-tyrosine or 12 mM L-DOPA) were added to each well of the 96 well plate.
Each fraction was dissolved in 600 μL of DMSO and added to 96-well plates to the final concentrations of 50, 25 and 12.5 μg/mL.
In the tyrosinase activity assay, the final concentrations of each compound were adjusted to 100, 50, 25, and 12.5 mM and IC50 was calculated. […] The result of the tyrosinase activity assay is illustrated in Table 5 and the results of the measurements of the relative amount of extracellular melanin and the relative cell survival rate are illustrated in Table 6.

[3] = substrate L-DOPA, read-out: IC50 (μM) DOPA
[4] = substrate L-tyrosine, read-out: IC50 (μM) Tyrosine

IC50 (mushroom tyrosinase; [3]) [µM] | IC50 (mushroom tyrosinase; [4]) [µM] | SMILES | activity at 730 µM (B16 melanoma cells [1]; 72 hours, relative to DMSO control, Table 3) [%] | activity at 730 µM (B16 melanoma cells [1]; Table 6) [%] | Cell Viability (%) (B16 melanoma cells [2]; 730 μM, 72 hours, MTT, relative to control, Table 3) | Cell Viability (%) (B16 melanoma cells [2]; 730 μM, Table 6) | activity at 100 µM (B16 melanoma cells [1]) [%] | activity at 200 µM (B16 melanoma cells [1]; 200 μM) [%] | Cell Viability (%) (B16 melanoma cells [2]; 100 μM) | Cell Viability (%) (B16 melanoma cells [2]; 200 μM) | activity at 25 µM (B16 melanoma cells [1]) [%] | activity at 50 µM (B16 melanoma cells [1]) [%] | Cell Viability (%) (B16 melanoma cells [2]; 25 μM) | Cell Viability (%) (B16 melanoma cells [2]; 50 μM) | activity at 75 µM (B16 melanoma cells [1]; 75 μM) [%] | Cell Viability (%) (B16 melanoma cells [2]; 75 μM)
– | – | OC[C@H]1O[C@@H](Oc2ccc(O)cc2)[C@H](O)[C@@H](O)[C@@H]1O [Arbutin, reference compound] | 21.3 | 32.7 | 99 | 107.6 | – | – | – | – | – | – | – | – | – | –
291 | 125 | CCCCCC(=O)c1cc(O)c(C)c(O)c1O [Compound 1, 1-(2,3,5-Trihydroxy-4-methylphenyl)hexane-1-one] | – | – | – | – | 78.2 | 13.6 | 73.3 | 64.9 | – | – | – | – | – | –
616 | 481 | CCCCCCCC(=O)c1cc(O)c(C)c(O)c1O [Compound 2, 1-(2,3,5-Trihydroxy-4-methylphenyl)octane-1-one] | – | – | – | – | – | – | – | – | 99 | 13.5 | 95.0 | 87.4 | – | –
489 | 84 | CCCCC/C=C/CCC(=O)c1cc(O)c(C)c(O)c1O [Compound 3, (4E)-1-(2,3,5-Trihydroxy-4-methylphenyl)dec-4-en-1-one] | – | – | – | – | 11.4 | – | 72.9 | – | 107 | 27.2 | 94.3 | 99.8 | 9.7 | 92.5
